Columns and labels:
[1] = test system: Namalwa cells; experiment: Proliferation of Namalwa cells alone, with control fibroblasts or with CD40L-expressing fibroblasts; format: cell-based; conditions: for sensitivity of Namalwa cells to CD40 ligation by CD40L: pre-treatment with compound, CD40L transfected fibroblasts (FIG. 4)
Source text: (§1) L929 cells are derived from an immortalized mouse fibroblast cell line, and are routinely used in in-vitro assays. The L929 cells used herein were obtained from the American Type Culture Collection (ATCC). Raji cells were also obtained from ATCC. Namalwa cells were obtained from the German Resource Centre for Biological Materials DSMZ. B-CLL cells were obtained from the peripheral blood of patients enrolled in a clinical trial.
(§2) Namalwa, Raji, CD40L-transfected fibroblasts and L929 fibroblasts were cultured in RPMI medium (Gibco-Invitrogen) supplemented with 10% FBS. B-CLL cells were cultured in Iscove's medium (Gibco-Invitrogen) plus 15% FBS. Namalwa, Raji and B-CLL cells were cultured with compounds from 2 to 4 days. Fibroblasts were maintained in culture in monolayers. The day before the co-culture, the fibroblasts were treated with mitomycin C to stop proliferation and were then replated. Suspension cells were then added to the fibroblasts and the culture was incubated for 2 to 4 days.
(§3) Flow cytometry was then used to determine cell numbers and the percentage of apoptotic cells using the FACSArray system (BD Biosciences). The cells were stained with 7-Amino-Actinomycin D (7-AAD) (BD Pharmingen) for 10 minutes at room temperature prior to flow cytometry analysis in order to identify non-viable cells.

[2] = test system: B-CLL cells; experiment: Response of B-CLL cells to CD40L-transfected fibroblasts after compound pre-treatment; format: cell-based, human; conditions: for response of B-CLL cells to CD40L treatment (percentage of viable cells per ml): relapsed patient at baseline, pre-treated 48 hours, then coculture with CD40L-transfected or control fibroblasts 48 hours (FIG. 5)
Source text: as §1, §2, §3
Pre-treatment with immunomodulatory compounds also augmented the sensitivity of Namalwa cells and CLL cells to CD40 ligation by CD40L. B-CLL cells taken from a relapsed patient at baseline were pre-treated with either 1,3-dioxo-2-(2,6-dioxopiperidin-3-yl)-4-aminoisoindoline or 1-oxo-2-(2,6-dioxopiperidin-3-yl)-4-aminoisoindoline for 48 hours. The cells were then cocultured with either CD40L-transfected fibroblasts or control fibroblasts for another 48 hours. The percentage of viable cells per ml was then measured (FIG. 5). Cells from another patient were pretreated with 1-oxo-2-(2,6-dioxopiperidin-3-yl)-4-aminoisoindoline for 24 hours and then cocultured with either CD40L-transfected fibroblasts or control fibroblasts for an additional 48 hours.

[3] = test system: normal primary B cells; experiment: Effect on normal primary B cells (p21 expression, viable cells); format: cell-based; conditions: for viable normal B cells: normal primary B cells in culture; for level of p21 expression: normal primary B cells, after 24 hours and 72 hours of culture
Method: as §3
Total RNA was isolated from Namalwa and B-CLL cells using RNAeasy (Qiagen). Gene expression analysis was performed using Affymetrix human U133A gene chips. Double-stranded cDNA was synthesized using […] of total RNA. Biotin-labeled cRNA was synthesized using a MessageAmp aRNA kit (Ambion). […] of cRNA was fragmented and hybridized to each array. The above procedures were performed twice for each RNA sample to obtain replicate biotin-labeled probes.
Cells cultured in the presence or absence of 1,3-dioxo-2-(2,6-dioxopiperidin-3-yl)-4-aminoisoindoline or 1-oxo-2-(2,6-dioxopiperidin-3-yl)-4-aminoisoindoline were characterized using flow cytometry and gene array analysis.

[4] = test system: B-CLL cells; experiment: CD40 expression in cultured B-CLL cells (anti-CD40 APC antibody mean intensity); format: cell-based, human; conditions: for mean intensity of anti-CD40 APC antibody: CD5+ CD19+ CLL blasts from a newly diagnosed patient, 4 days in culture (FIG. 2)
[5] = test system: Raji cells; experiment: CD40 expression on Raji cells by flow cytometry; format: cell-based; conditions: 10 μM, 48 hours of incubation, vs DMSO control (FIG. 1)
[6] = test system: CD19^+CD5^+ cells; experiment: CD40 on CD19+CD5+ cells of patients undergoing therapy, flow cytometry; format: in vivo, human

Nc1cccc2c1C(=O)N(C1CCC(=O)NC1=O)C2=O (stereo not drawn) [1,3-dioxo-2-(2,6-dioxopiperidin-3-yl)-4-aminoisoindoline]
proliferation of Namalwa cells ([1]; 0.01-10 μM, alone or in the presence of control fibroblasts (FIG. 4)): inhibiting cell proliferation in a dose dependent manner
sensitivity of Namalwa cells to CD40 ligation by CD40L [1]: increased the sensitivity of Namalwa cells to CD40 ligation by CD40L
response of B-CLL cells to CD40L treatment (percentage of viable cells per ml) [2]: increases the response of B-CLL cells to CD40L treatment
viable normal B cells [3]: dose-dependent increase in viable normal B cells
level of p21 expression [3]: did not increase the level of p21 expression
mean intensity of anti-CD40 APC antibody [4]: approximately doubled
mean intensity of anti-CD40 APC antibody in CD5+CD19+ CLL blasts ([4]; newly diagnosed patient, 0.1, 1.0 or 10 μM, 24 hours, vs DMSO (FIG. 3)): augments the expression of CD40 in a dose responsive manner
percentage of CD40+ cells [5]: increase the number of CD40^+ Raji cells

Nc1cccc2c1CN(C1CCC(=O)NC1=O)C2=O (stereo not drawn) [1-oxo-2-(2,6-dioxopiperidin-3-yl)-4-aminoisoindoline]
sensitivity of Namalwa cells to CD40 ligation by CD40L [1]: increased the sensitivity of Namalwa cells to CD40 ligation by CD40L
response of B-CLL cells to CD40L treatment (total cells/ml) ([2]; newly diagnosed patient, pre-treated 0.1, 1.0 or 10 μM 24 hours, then CD40L-transfected or control fibroblasts 48 h (FIG. 6)): increases the response of B-CLL cells to CD40L treatment
response of B-CLL cells to CD40L treatment (percentage of viable cells per ml) [2]: increases the response of B-CLL cells to CD40L treatment
viable normal B cells [3]: dose-dependent increase in viable normal B cells
level of p21 expression [3]: did not increase the level of p21 expression
CD40+ cells among CD19+CD5+ cells ([6]; patient of FIG. 7, after 8 days of therapy, baseline 6.4%): 57.4%
CD40+ cells among CD19+CD5+ cells ([6]; patient of FIG. 8, after 8 days of therapy, baseline 12.5%): 36.7%
CD40+ cells among CD19+CD5+ cells ([6]; patient of FIG. 9, after 28 days of therapy, baseline 2.4%): 13.9%
CD40 in B-CLL cells of patients ([6]; patients undergoing therapy, summary statement): upregulation of CD40 in B-CLL cells
mean intensity of anti-CD40 APC antibody [4]: approximately doubled
percentage of CD40+ cells [5]: increase the number of CD40^+ Raji cells

B1: CD40L: CD40 ligand, used in the form of CD40L transfected fibroblasts (protein, UniProt P29965 113-261, looked up)
CD40 ligand, soluble form: MQKGDQNPQIAAHVISEASSKTTSVLQWAEKGYYTMSNNLVTLENGKQLTVKRQGLYYIYAQVTFCSNREASSQAPFIASLCLKSPGRFERILLRAANTHSSAKPCGQQSIHLGGVFELQPGASVFVNVTDPSQVSHGTGFTSFGLLKL
modifications: expressed on transfected fibroblasts
cell growth / cell apoptosis ([1]; Namalwa cells treated with CD40L transfected fibroblasts): inhibit cell growth and/or augment cell apoptosis
cell growth / cell apoptosis ([2]; B-CLL cells treated with CD40L transfected fibroblasts): inhibit cell growth and/or augment cell apoptosis

Source: patent US20090232796A1, “METHOD OF TREATING CANCER BY ADMINISTERING AN IMMUNOMODULATORY COMPOUND IN COMBINATION WITH A CD40 ANTIBODY OR CD40 LIGAND” (priority 2008, published 2009)
